From paper PMC11990524, “Design and Synthesis of Novel 6-(Substituted phenyl)-[1,3]dioxolo[4′,5′:4,5]benzo[1,2-d]thiazole Compounds as Tyrosinase Inhibitors: In Vitro and In Vivo Insights” (Molecules, 2025)
Read-outs that look alike come from different tables or passages of the source.

Assays:
[1] = ABTS radical scavenging assay; details: 100 μM
Method: The ABTS^+ radical solution was obtained by mixing ABTS and potassium persulfate, an oxidizing reagent, and test samples (1–13 and Trolox [positive control]; final concentration: 100 μM) were added to determine their ABTS^+ radical scavenging ability by measuring the optical density at 732 nm.
To prepare ABTS^•+ stock solution, equal amounts of ABTS (14 mM aqueous solution) and K2S2O8 (4.9 mM aqueous solution) were mixed and stored in the dark at 18 °C for 15 h. The prepared ABTS^•+ solution was diluted in ethanol to adjust the absorbance to 0.7 ± 0.01 at 732 nm. The test samples (Trolox [positive control] and compounds 1–13) were dissolved in a cosolvent of ethanol and DMSO (10:1 [v/v]). The adjusted ABTS^•+ solution (90 μL) and test sample (10 μL) were added to each well of a 96-well plate, and the plate was stored in a dark place at 18 °C for 2 min. The optical density was measured at 732 nm every min for 10 min. The test sample solutions were tested at a final concentration of 100 μM. The percentage of radical scavenging activity was calculated as follows: % Radical scavenging activity = 100 × [(Absc − Abst)/Absc], where Abst and Absc are optical densities of the test sample and control, respectively.

mushroom tyrosinase = mushroom tyrosinase (Agaricus bisporus, UniProt C7FF04); assay: Mushroom tyrosinase inhibitory activity assay (L-dopa or L-tyrosine as substrate); type: biochemical; details: 50 μM, read-out: Inhibition (%, Mean ± SEM) at 50 μM (converted)
Chain of mushroom tyrosinase (C7FF04 2-392): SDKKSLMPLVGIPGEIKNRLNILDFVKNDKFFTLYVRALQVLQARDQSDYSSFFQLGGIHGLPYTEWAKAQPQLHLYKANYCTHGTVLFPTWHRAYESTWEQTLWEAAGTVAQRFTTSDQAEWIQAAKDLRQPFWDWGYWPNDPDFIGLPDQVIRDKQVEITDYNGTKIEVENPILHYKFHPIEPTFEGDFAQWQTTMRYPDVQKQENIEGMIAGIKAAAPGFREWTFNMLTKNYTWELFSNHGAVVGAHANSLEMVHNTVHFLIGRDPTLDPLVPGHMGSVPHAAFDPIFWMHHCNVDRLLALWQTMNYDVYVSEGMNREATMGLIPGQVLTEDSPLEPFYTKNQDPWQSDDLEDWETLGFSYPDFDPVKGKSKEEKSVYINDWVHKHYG
Method: In the inhibition experiments, L-dopa and L-tyrosine were used as enzyme substrates.
The plate was incubated at 37 °C for 30 min, and absorbance of dopachrome formation was recorded spectrophotometrically at 475 nm using a VersaMax® Elisa (VE) microplate reader (Molecular Devices, San Jose, CA, USA) to determine tyrosinase inhibition activity. A VE microplate reader was used in all subsequent experiments to measure optical density. All experiments were carried out independently three times.

[2] = DPPH radical scavenging assay; details: 500 μM; 30 min in the dark
Method: DPPH radical scavenging activity was determined by mixing the DPPH solution with compounds 1–13, leaving it in the dark at 20 °C for 30 min, and measuring the optical density at 517 nm. Ascorbic acid (AA) was used as a positive control to compare the scavenging activity. All test samples were used at 500 μM.
An aliquot (20 μL) of test sample (compounds 1–13 and ascorbic acid [positive control]; 5 mM) in DMSO and 180 μL DPPH solution (0.2 mM) in methanol were mixed in each well of a 96-well plate. The mixed solution was kept in the dark at 18 °C for 30 min. A VE microplate reader was used to measure the optical density of each well at 517 nm.

SMILES | inhibition at 50 µM (mushroom tyrosinase; substrate L-dopa) [%] | inhibition at 50 µM (mushroom tyrosinase; substrate L-tyrosine) [%] | ABTS^+ radical scavenging activity (inhibition rate) [1] [%] | DPPH radical scavenging (inhibition) [2] [%]
CCOc1cc(-c2nc3cc4c(cc3s2)OCO4)ccc1O [Compound 2, 4-([1,3]Dioxolo[4′,5′:4,5]benzo[1,2-d]thiazol-6-yl)-2-ethoxyphenol] | 50.3 | 14.9 | > 77 | 
COc1ccc(-c2nc3cc4c(cc3s2)OCO4)cc1 [Compound 3, 6-(4-Methoxyphenyl)-[1,3]dioxolo[4′,5′:4,5]benzo[1,2-d]thiazole] | 17.2 | 11.1 |  | 
COc1cc(-c2nc3cc4c(cc3s2)OCO4)ccc1O [Compound 1, 4-([1,3]Dioxolo[4′,5′:4,5]benzo[1,2-d]thiazol-6-yl)-2-methoxyphenol] | 1.7 | 25.9 | > 77 | 
Cc1c(C)c2c(c(C)c1O)CCC(C)(C(=O)O)O2 (stereo not drawn) [Trolox, reference compound] |  |  | 99 | 
O=C1O[C@H]([C@@H](O)CO)C(O)=C1O [AA, Ascorbic acid, reference compound] |  |  |  | 96
Oc1c(Br)cc(-c2nc3cc4c(cc3s2)OCO4)cc1Br [Compound 7, 4-([1,3]Dioxolo[4′,5′:4,5]benzo[1,2-d]thiazol-6-yl)-2,6-dibromophenol] | 29.7 | 17.7 |  | 
COc1ccc(-c2nc3cc4c(cc3s2)OCO4)cc1O [Compound 4, 5-([1,3]Dioxolo[4′,5′:4,5]benzo[1,2-d]thiazol-6-yl)-2-methoxyphenol] | 63 | 25.5 | > 77 | 
Oc1ccc(-c2nc3cc4c(cc3s2)OCO4)cc1Br [Compound 6, 4-([1,3]Dioxolo[4′,5′:4,5]benzo[1,2-d]thiazol-6-yl)-2-bromophenol] | 27.9 | 17 |  | 

The next lines start with results.

inhibition at 50 µM (mushroom tyrosinase; substrate L-dopa) [%] | inhibition at 50 µM (mushroom tyrosinase; substrate L-tyrosine) [%] | SMILES | ABTS^+ radical scavenging activity (inhibition rate) [1] [%] | DPPH radical scavenging (inhibition) [2] [%]
5 | 16.6 | COc1cc(-c2nc3cc4c(cc3s2)OCO4)cc(OC)c1OC [Compound 13, 6-(3,4,5-Trimethoxyphenyl)-[1,3]dioxolo[4′,5′:4,5]benzo[1,2-d]thiazole] |  | 
32.8 | 10.6 | COc1ccc(-c2nc3cc4c(cc3s2)OCO4)c(OC)c1 [Compound 12, 6-(2,4-Dimethoxyphenyl)-[1,3]dioxolo[4′,5′:4,5]benzo[1,2-d]thiazole] |  | 
19.5 | 0.82 | COc1ccc(-c2nc3cc4c(cc3s2)OCO4)cc1OC [Compound 11, 6-(3,4-Dimethoxyphenyl)-[1,3]dioxolo[4′,5′:4,5]benzo[1,2-d]thiazole] |  | 
18.6 | 4.95 | Oc1ccc(-c2nc3cc4c(cc3s2)OCO4)cc1O [Compound 8, 4-([1,3]Dioxolo[4′,5′:4,5]benzo[1,2-d]thiazol-6-yl)benzene-1,2-diol] | 99 | 82
53.2 | 0.54 | COc1cc(-c2nc3cc4c(cc3s2)OCO4)cc(OC)c1O [Compound 10, 4-([1,3]Dioxolo[4′,5′:4,5]benzo[1,2-d]thiazol-6-yl)-2,6-dimethoxyphenol] | 96 | 
